Data reported in patent publication US20210196685A1, “COMPOSITION FOR ERADICATING HELICOBACTER PYLORI” (HK INNO.N CORPORATION, priority 2018, published 2021).
“Also recorded” adds a separate entry of the source.

Assays:
[1] = Clinical Study 1, Cohort 1: pharmacokinetic interaction of multiple-dose tegoprazan and amoxicillin/clarithromycin; assay type: in vivo, human; conditions: for change of AUC on administering the three formulations in combination (in words) / change of Cmax on administering the three formulations in combination (in words): tegoprazan + amoxicillin + clarithromycin in combination
Protocol: To evaluate pharmacokinetic interaction of multiple-dose administration of single and combination of tegoprazan and amoxicillin/clarithromycin, a clinical study was designed in accordance with a randomized, open-label, and multiple-dose design.
A total of 24 subjects who had been determined eligible to participate in the study were randomly assigned in a 1:1 ratio to each one of the two groups. Each randomly-assigned group was administered with investigational medical products as arranged during each intervention period and underwent a clinical study as designed. In consideration of the half-life of each product, a 14-day wash-out period was given between the intervention periods.
A total of 24 subjects were divided into group 1 and group 2. During the first intervention period, subjects of group 1 (12 person) were repeatedly administered with 100 mg of tegoprazan twice a day for four days and administered once a day on the fifth day on which a pharmacokinetic clinical study was conducted. During the second intervention period after a 14-day wash-out period, they were repeatedly administered with 1000 mg of amoxicillin and 500 mg of clarithromycin twice a day for four days and administered once a day on the fifth day. During the third intervention period after a 14-day wash-out period, they were repeatedly administered with 100 mg of tegoprazan, 1000 mg of amoxicillin, and 500 mg of clarithromycin twice a day for six days and administered once a day on the seventh day. Following the last dose of each intervention period, pharmacokinetic blood samples were collected for 17 times over 72 hours in the first period, 14 times over 48 hours in the second period, and 19 times over 120 hours in the third period.
Drugs were administered to subjects of group 2 (12 person) in the reverse order to the way the study was conducted on group 1 in the first and second intervention periods and in the same order in the third intervention period. Pharmacokinetic blood samples were collected in the same manner as group 1.
The average plasma concentrations of tegoprazan, clarithromycin, and amoxicillin were measured and time-based plasma concentration and time-based drug concentration patterns were observed when tegoprazan was repeatedly administered alone, amoxicillin/clarithromycin were repeatedly administered and tegoprazan, amoxicillin, and clarithromycin were repeatedly administered in combination.
Pharmacokinetics of tegoprazan, amoxicillin, and clarithromycin were evaluated. Descriptive statistics of pharmacokinetic evaluation parameters were presented. Point estimates for geometric mean ratio between each group and 90% confidence interval were calculated from the log-converted primary pharmacokinetic evaluation parameters by using a linear mixed effect model.

[2] = Clinical Study 1, Cohort 2: 24-hour intragastric pH on repeated co-administration with amoxicillin/clarithromycin; assay type: in vivo, human
From the text: To identify an effect of eradicating Helicobacter pylori in the present invention, a clinical study was designed in accordance with a randomized, open-label, active-controlled, parallel and multiple-dose design. A total of 221 patients were subjected to screening for this study. Out of them, 36 patients were registered thereto and the completed clinical results were obtained from 34 patients.
Particularly, the 36 patients above were divided into three patient groups (T1, T2 and R) and the clinical study was performed accordingly. […]
The T1 group was repeatedly given 50 mg of CJ-12420 and 1000 mg of amoxicillin/500 mg of clarithromycin twice a day for seven days; the T2 group was repeatedly given 100 mg of CJ-12420 and 1000 mg of amoxicillin/500 mg of clarithromycin twice a day for seven days; and the R group was repeatedly given 40 mg of pantoprazole and 1000 mg of amoxicillin/500 mg of clarithromycin twice a day for seven days. An intragastric pH was measured from all the subjects on Day 1 for 24 hours, and the intragastric pH was also measured for 24 hours on Day 1 and Day 7 of repeated administration. Also, a negative conversion rate was calculated upon a follow-up visit paid by subjects who were identified to be H. pylori positive on the UBT test during screening, and stability evaluation was performed according to a predetermined schedule. […]

[3] = tegoprazan 100 mg twice a day, with amoxicillin 1000 mg/clarithromycin 500 mg versus alone

Row | Structure (SMILES) | increase of AUC when administered in combination with amoxicillin/clarithromycin [1, 3] | increase of Cmax when administered in combination with amoxicillin/clarithromycin [1, 3] | change of AUC on administering the three formulations in combination (in words) [1] | change of Cmax on administering the three formulations in combination (in words) [1] | speed of intragastric pH increase (to 6 or more) right after the administration [2]
1 | Cc1nc2c(OC3CCOc4cc(F)cc(F)c43)cc(C(=O)N(C)C)cc2[nH]1 (stereo not shown) [Tegoprazan, 4-[(5,7-difluoro-3,4-dihydro-2H-chromene-4-yl)oxy]-N,N,2-trimethyl-1H-benzimidazole-6-carboxamide] | 2.70 times | 2.24 times | increased | increased | two hours or less
2 | CC[C@H]1OC(=O)[C@H](C)[C@@H](O[C@H]2C[C@@](C)(OC)[C@@H](O)[C@H](C)O2)[C@H](C)[C@@H](O[C@@H]2O[C@H](C)C[C@H](N(C)C)[C@H]2O)[C@](C)(OC)C[C@@H](C)C(=O)[C@H](C)[C@@H](O)[C@]1(C)O [clarithromycin, (3R,4S,5S,6R,7R,9R,11R,12R,13S,14R)-6-[(2S,3R,4S,6R)-4-(dimethylamino)-3-hydroxy-6-methyloxane-2-yl]oxy-14-ethyl-12,13-dihydroxy-4-[(2R,4R,5S,6S)-5-hydroxy-4-methoxy-4,6-dimethyloxane-2-yl]oxy-7-methoxy-3,5,7,9,11,13-hexamethyl-oxacyclotetradecane-2,10-dione, reference compound] |  |  | tendency to increase; also recorded: increased | tendency to increase; also recorded: increased | 
